The target in one data set is T1, alpha1D adrenoceptor (Homo sapiens, UniProt P25100).
T1 construct: expressed in transfected cells; host or cells: CHO-K1
T1 sequence (P25100 1-572): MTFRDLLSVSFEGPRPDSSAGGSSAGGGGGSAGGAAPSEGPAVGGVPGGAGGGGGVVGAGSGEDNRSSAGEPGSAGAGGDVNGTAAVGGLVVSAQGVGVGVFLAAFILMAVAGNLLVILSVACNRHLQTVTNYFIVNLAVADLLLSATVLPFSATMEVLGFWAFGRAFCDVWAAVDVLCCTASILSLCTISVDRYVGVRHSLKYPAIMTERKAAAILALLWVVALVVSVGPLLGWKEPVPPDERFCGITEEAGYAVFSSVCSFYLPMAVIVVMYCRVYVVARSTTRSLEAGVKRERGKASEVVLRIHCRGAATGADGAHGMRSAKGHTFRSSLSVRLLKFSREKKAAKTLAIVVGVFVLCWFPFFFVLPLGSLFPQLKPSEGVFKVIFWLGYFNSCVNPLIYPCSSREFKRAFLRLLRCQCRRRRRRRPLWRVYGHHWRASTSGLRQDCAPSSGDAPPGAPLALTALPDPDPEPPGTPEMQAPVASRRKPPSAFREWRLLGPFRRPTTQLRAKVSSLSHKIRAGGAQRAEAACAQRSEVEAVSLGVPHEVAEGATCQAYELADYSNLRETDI
As to the kind of experiment: [3H]prazosin binding (alpha1-adrenoceptor) assay, membranes of transfected CHO-K1 cells. The settings on record: transfected CHO-K1 cell membranes, read-out: pKi alpha 1D (converted). Here is the method: (§1) Example [^3H]prazosin Binding (Alpha1-Adrenoceptor) Assay
(§2) Alpha1A, alpha1B, and alpha1D adrenoceptor transfected CHO-K1 cells, prepared using the methods described by Chang et al., FEBS Lett. 1998, 422:279–283, were grown to confluence in T-162 tissue culture flasks in Ham's F-12 culture medium supplemented with 10% fetal bovine serum, geneticin (150 μg/mL) and streptomycin/penicillin (30 μg/mL/30 μg/mL) at 37° C. in 7% CO2. Cells were harvested by incubating with phosphate-buffered saline (PBS) containing 30 μM EDTA for 5–10 min at 37° C. Cells were pelleted by centrifuging at 500×g for 5 min, and the pelleted cells were homogenized (Polytron homogenizer) in 10 vols (w/v) of 50 mM Tris, 1 mM EDTA, (homogenisation buffer, pH 7.4 at 4° C.). The homogenate was centrifuged at 45,000×g for 20 min. The pellet was resuspended in the homogenizing buffer and rehomogenized. The resulting homogenate was centrifuged at 45,000×g for 20 min. The pellet was resuspended in 50 mM Tris buffer (pH 7.4 at 4° C.), aliquoted, frozen, and stored at −80° C. for further use.
(§3) The membranes were thawed at room temperature and diluted in assay buffer (50 mM Tris buffer at […]) at 37° C. and homogenized using the Polytron tissue disrupter. The membranes were incubated with the radioligand ([^3H]prazosin, NEN, 0.1–0.5 nM) and test compound at 37° C. for 30 min. The membranes were then filtered over polyethyleneimine-treated GF/B unifilter plates using a Packard Filtermate Harvester and washed with ice-cold 50 mM Tris-HCl, 1 mM EDTA buffer (3×3 sec. washes). Scintillation cocktail was added to the filter plates and bound radioligand determined by liquid scintillation spectrophotometry.
(§4) For each experiment, total binding (in the absence of any test or reference compounds) and non-specific binding (10 μM phentolamine) were determined. For each sample tested, the concentration producing 50% inhibition of binding (IC50) and Hill Slope (nH) was determined using iterative non-linear curve fitting techniques with Kaleidagraph (Synergy Software) or other appropriate software. If the radioligand KD was known, the inhibition dissociation constant (KI) of each ligand was determined according to the method of Cheng and Prusoff (Cheng, Y-C. and Prusoff, W. H., Biochem. Pharmacol., 1973, 22, 3099–3108).

A further data set deals with T2, Alpha1A adrenoceptor (Homo sapiens, UniProt P35348).
T2 construct: expressed in transfected cells; host or cells: CHO-K1
T2 sequence (P35348 1-466): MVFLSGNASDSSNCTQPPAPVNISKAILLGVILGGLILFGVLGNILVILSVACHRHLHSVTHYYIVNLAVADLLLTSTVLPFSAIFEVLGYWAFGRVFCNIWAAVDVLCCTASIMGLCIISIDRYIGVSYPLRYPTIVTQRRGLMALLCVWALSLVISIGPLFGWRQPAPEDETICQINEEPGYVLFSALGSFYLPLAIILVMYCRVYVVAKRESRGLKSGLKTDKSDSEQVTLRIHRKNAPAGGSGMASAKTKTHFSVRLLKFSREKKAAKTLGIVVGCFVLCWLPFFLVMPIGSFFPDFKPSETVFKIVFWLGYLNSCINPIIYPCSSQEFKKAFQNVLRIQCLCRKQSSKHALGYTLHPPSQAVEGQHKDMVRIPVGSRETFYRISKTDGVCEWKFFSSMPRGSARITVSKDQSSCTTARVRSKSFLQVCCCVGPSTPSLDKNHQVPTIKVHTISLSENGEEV
The description is as above. The settings on record: transfected CHO-K1 cell membranes, read-out: pKi alpha 1A (converted). Here is the method: as §1, §2, §3, §4

The target in a further data set is T3, alpha1B adrenoceptor (Homo sapiens, UniProt P35368).
T3 construct: expressed in transfected cells; host or cells: CHO-K1
T3 sequence (P35368 1-520): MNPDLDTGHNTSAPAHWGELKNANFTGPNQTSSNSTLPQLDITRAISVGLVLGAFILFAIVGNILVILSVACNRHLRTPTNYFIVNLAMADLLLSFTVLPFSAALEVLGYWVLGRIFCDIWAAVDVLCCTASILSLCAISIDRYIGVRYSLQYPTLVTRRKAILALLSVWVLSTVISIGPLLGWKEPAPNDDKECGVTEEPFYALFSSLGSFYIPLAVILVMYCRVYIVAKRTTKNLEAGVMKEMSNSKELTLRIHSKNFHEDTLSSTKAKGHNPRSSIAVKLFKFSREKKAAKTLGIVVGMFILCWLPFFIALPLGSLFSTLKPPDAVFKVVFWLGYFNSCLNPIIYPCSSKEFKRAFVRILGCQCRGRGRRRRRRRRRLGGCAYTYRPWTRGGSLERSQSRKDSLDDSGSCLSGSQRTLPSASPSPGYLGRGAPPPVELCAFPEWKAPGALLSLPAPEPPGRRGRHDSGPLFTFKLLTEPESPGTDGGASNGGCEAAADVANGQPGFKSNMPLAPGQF
The data set is described as above. Conditions: transfected CHO-K1 cell membranes, read-out: pKi alpha 1B (converted). Here is the method: as §1, §2, §3, §4

For another data set, the system named is anesthetized dog. Description: Dog in vivo intraurethral and blood pressure assay. The settings on record: anesthetized male Mongrel dog, i.v. bolus, increasing doses. Here is the method: Dog In Vivo Intraurethral and Blood Pressure Assay
The following describes an in vivo assay for measuring the relative effect of test compounds on hypogastric nerve stimulation-induced increases in intraurethral pressure and phenylephrine-induced increases in diastolic blood pressure in anesthetized dog.
Male Mongrel dogs (10 to 20 kg) were fasted for 12 to 18 hours and anesthetized with phenobarbital sodium (36 mg/kg, i.v.). An endotracheal tube was inserted and thereafter the lungs were mechanically ventilated with room air. The right femoral vein was isolated and cannulated with two polyethylene cannulae, one for the administration of a continuous infusion of phenobarbital sodium (5 to 10 mg/kg/hr) and the other for bolus administration of test substances. The right femoral artery was isolated and cannulated to the abdominal aorta with a fluid filled polyethylene cannula connected to an external pressure transducer for monitoring diastolic aortic pressure (DAP). The bladder was exposed via a ventral midline abdominal incision and emptied of urine through a 22 gauge needle. The bladder was cannulated through a stab incision with a water filled balloon catheter connected to an external pressure transducer for monitoring prostatic intraurethral pressure (IUP). The right hypogastric nerve (HGN) was carefully isolated and attached to a Dastre's electrode for nerve stimulation. […]

On to `COc1cc2[nH]c(N(C)Cc3ccc4c(c3)CN(C)C4)nc(=O)c2c(C)c1OC` [6,7-Dimethoxy-5-methyl-2-[methyl-(2-methyl-2,3-dihydro-1H-isoindol-5-ylmethyl)-amino]-1H-quinazolin-4-one], for which the Ki was 2630 nM on alpha1D adrenoceptor, 3.24 nM at Alpha1A adrenoceptor and 14.8 nM at alpha1B adrenoceptor.
Taken in the same sequence, the figures for `COc1cc2[nH]c(N(C)Cc3ccc(OCC(O)CO)cc3)nc(=O)c2c(C)c1OC` (stereo not drawn) [2-{[4-(2,3-dihydroxy-propoxy)-benzyl]-methyl-amino}-6,7-dimethoxy-5-methyl-1H-quinazolin-4-one] were 794 nM, 7.08 nM and 6.92 nM.
Consider `COc1cc2nc(N3CCN(C(=O)c4ccco4)CC3)nc(N)c2cc1OC` [prazosin], for which, in the data set on anesthetized dog, the “inhibition of hypogastric nerve (HGN) stimulation-induced increases in intraurethral pressure (IUP)” value was “inhibited increases in IUP and DAP in similar fashion”; the “inhibition of phenylephrine-induced increases in diastolic aortic pressure (DAP)” value is “inhibited increases in IUP and DAP in similar fashion”.
For `COc1cc2[nH]c(N(C)Cc3cccc(C4=NCCO4)c3)nc(=O)c2c(OC)c1OC` [2-{[3-(4,5-dihydro-oxazol-2-yl)-benzyl]-methyl-amino}-5,6,7-trimethoxy-1H-quinazolin-4-one], the Ki is 2630 nM on alpha1D adrenoceptor, 813 nM at Alpha1A adrenoceptor and 14.8 nM at alpha1B adrenoceptor.
With `COc1cc2[nH]c(NCc3cccc(N=C(C)N(C)C)c3)nc(=O)c2c(C)c1OC`, the Ki on alpha1D adrenoceptor is 69.2 nM; at Alpha1A adrenoceptor it was 7.41 nM; at alpha1B adrenoceptor, 0.891 nM.
Take `COc1cc2[nH]c(N(C)Cc3cccc(CN4CCC(OC)C4)c3)nc(=O)c2c(OC)c1OC` (stereo not drawn) [5,6,7-trimethoxy-2-{[3-(3-methoxy-pyrrolidin-1-ylmethyl)-benzyl]-methyl-amino}-1H-quinazolin-4-one]: the Ki at alpha1D adrenoceptor was 5370 nM; at Alpha1A adrenoceptor, 5.37 nM; at alpha1B adrenoceptor, 7.41 nM.
`COc1cc2[nH]c(N(C)Cc3cccc(C(C)N(C)C)c3)nc(=O)c2c(OC)c1OC` (stereo not drawn) [2-{[3-(1-Dimethylamino-ethyl)-benzyl]-methyl-amino}-5,6,7-trimethoxy-1H-quinazolin-4-one]: the Ki on alpha1D adrenoceptor was 141 nM; at Alpha1A adrenoceptor, 1.55 nM; on alpha1B adrenoceptor it was 3.72 nM.
Turning to `COC(=O)Nc1cccc(CN(C)c2nc(=O)c3c(OC)c(OC)c(OC)cc3[nH]2)c1` [Example 177, (3-{[Methyl-(5,6,7-trimethoxy-4-oxo-1,4-dihydro-quinazolin-2-yl)-amino]-methyl}-phenyl)-carbamic acid methylester], the melting point (usually the temperature, or range, at which the solid turns liquid) was 230.9 to 232.1 °C.
Consider `COc1cc2[nH]c(N(C)Cc3cccc(Nc4ncccn4)c3)nc(=O)c2c(OC)c1OC` [Example 213, 5,6,7-Trimethoxy-2-{methyl-[3-(pyrimidin-2-ylamino)-benzyl]-amino}-1H-quinaozlin-4-one], for which the melting point fell in the range of 190.3 to 191.1 °C.
Still for that read-out and setting: the result for `COc1cc2[nH]c(N(C)Cc3cccc(N4CCC(C)C4=O)c3)nc(=O)c2c(C)c1OC` (stereo not drawn) [Example 256, 6,7-Dimethoxy-5-methyl-2-{methyl-[3-(3-methyl-2-oxo-pyrrolidin-1-yl)-benzyl]-amino}-1H-quinazolin-4-one] reads 210.8 to 211.6 °C.
`CCN(C)Cc1ccc(CN(C)c2nc(=O)c3c(OC)c(OC)c(OC)cc3[nH]2)cc1` [2-({4-[(ethyl-methyl-amino)-methyl]-benzyl}-methyl-amino)-5,6,7-trimethoxy-1H-quinazolin-4-one]: the Ki at alpha1D adrenoceptor is 550 nM; on Alpha1A adrenoceptor, 3.16 nM; on alpha1B adrenoceptor, 3.09 nM.
The compound `COc1cc2[nH]c(N(C)Cc3cccc(-c4ncc[nH]4)c3)nc(=O)c2c(C)c1OC` [Example 248, 2-{[3-(1H-Imidazol-2-yl)-benzyl]-methyl-amino}-6,7-dimethoxy-5-methyl-1H-quinazolin-4-one] registered a melting point of 255.5 to 258.9 °C.

The values are drawn from patent US7244738B2, “Arylamine-substituted quinazolinone compounds useful as alpha 1A/B adrenergic receptor antagonists” (Roche Palo Alto LLC, priority 2003, dated 2007).
